Results reported in US20140135396A1, “Treatment of Acetaminophen-Induced Liver Damage by the Administration of Modulators of Nitric Oxide” (BETH ISRAEL DEACONESS MEDICAL CENTER, INC., priority 2011, published 2014).
“Also recorded” adds a separate entry of the source.

Legend:
zebrafish embryos [1] = experiment: Liver size in zebrafish embryos (lfabp in situ hybridization, lfabp:GFP); format: in vivo; conditions: for liver size: other NO donors at optimal doses, alternative NOS inhibitor, inactive enantiomer, dose series; for liver size (in situ hybridization for lfabp and transferrin): 10 μM, exposure 24-72 hpf
Experimental: In order to identify regulators of liver formation a chemical genetic screen was conducted. Several of the chemicals identified by the screen were known to impact on NO signaling. Based on these initial observations, well-established modulators of NO signaling were secondarily screened for effects on liver formation. […] The contrasting effects of L-Arg and L-NAME on liver formation were confirmed by in vivo fluorescent microscopy of lfabp:GFP transgenic zebrafish. To quantify the phenotypic changes caused by NO signaling, the liver size (region of lfabp expression) of treated embryos were scored as large, medium or small. […]
To further characterize the role of NO signaling on liver formation, we studied the temporal requirements for NO signaling. Embryos were exposed to Deta (10 μM), L-Arg (10 μM) or L-NAME (10 μM) from 24-48 or 48-72 hpf at which point liver size was assessed. […] Exposure of embryos to L-Arg (10 μM) caused a subtle yet significant increase in the hepatic bud size at 36 hpf (region of hhex expression) in 26% of embryos, whereas L-NAME diminished hepatic bud size in 33% of embryos. […]

cloche embryos = experiment: Liver size in cloche mutant embryos lacking vasculature; format: in vivo, zebrafish; conditions: for liver size in cloche embryos: summary statement
Description: NO signaling can occur via 2 distinct mechanisms namely, cGMP-dependent vasodilation and S-nitrosylation pathways. In order to clarify the importance of the well-known vascular effects of NO, we examined the effect of chemical modulators of NO signaling in cloche mutants that have no endothelial cells and therefore lack any vasculature.

zebrafish embryos [2] = experiment: Survival of zebrafish embryos exposed to a lethal dose of APAP; format: in vivo; conditions: for survival compared to APAP alone: co-exposure 5 μM; for survival: GSNORi 1 μM, NAC 10 μM
Experimental: Having found a hepatoprotective effect of GSNORi in embryos exposed to a sublethal dose of APAP, we next examined whether GSNORi was able to enhance survival in embryos exposed to a lethal dose of APAP (10 mM).

adult zebrafish = experiment: APAP-induced liver injury in adult zebrafish; format: in vivo; conditions: for overall survival compared to APAP alone: adults, Deta 5 μM, GSNO 5 μM; for overall survival compared to APAP alone / hepatic glutathione (GSH) / liver histology: APAP 10 mM; for hepatic glutathione (GSH) / liver histology: GSNORi 1 μM and/or NAC 10 μM
Experimental: Having shown that GSNORi was hepatoprotective in APAP exposed larvae, we wanted to examine whether GSNORi remained effective in adult zebrafish. To visualise the hepatoprotective properties of GSNORi in vivo, adult casper lfabp:GFP transgenic fish were exposed to APAP (10 mM) in the presence or absence of GSNORi (1 μM) for 24 hr and examined 72 hpe by fluorescence microscopy. […] To gain a greater understanding of the hepatoprotective potential of GSNORi, survival studies were conducted in which adults were exposed to APAP (10 mM) in the presence or absence of GSNORi (1 μM) for 24 hr, followed by a 2-day recovery period in fresh water. […] The differences in survival were reflected in circulating ALT levels, which are used clinically to assess liver toxicity; peaking at 24 hpe with 196 U/L in APAP (10 mM) exposed fish and 55 U/L for fish exposed to APAP with GSNORi (1 μM).
Given that treatments for APAP-induced liver injury are provided after a considerable delay in the clinical setting, we wanted to determine whether GSNORi would remain hepatoprotective when treatment was delayed. In addition, we wanted to ascertain whether GSNORi could synergize with the clinical antidote NAC and extend the therapeutic window.

zebrafish embryos [3] = experiment: Chemical genetic screen for effects on liver development in zebrafish embryos; format: in vivo; conditions: lfabp:GFP fluorescence and lfabp in situ hybridization at 72 hpf
Experimental: The liver arises from anterior endodermal progenitor cells. Liver development can be divided into three stages, specification (18-24 hours post fertilization, hpf), budding/differentiation (24-72 hpf), and hepatic outgrowth (72-96 hpf). The various stages of liver development can be observed in the embryo by in situ hybridization for hhex (endodermal progenitors), foxA3 (differentiated endoderm) and liver fatty acid binding protein (lfabp, marker of hepatocytes).
In an effort to identify novel regulators of liver formation and homeostasis, a library of 2880 biologically active compounds (obtained from the ICCB at Harvard Medical School) was previously screened for global effects on liver development in zebrafish. Hepatogenesis was assessed in vivo using fluorescent reporter fish where the hepatocyte-specific lfabp promoter drives GFP expression. All embryos were imaged with fluorescence microscopy at 72 hpf, then fixed and subjected to in situ hybridization for lfabp to confirm the in vivo findings. Of the chemical treatments, 191 compounds (6.6%) increased, and 344 (11%) decreased liver formation.

zebrafish embryos [4] = experiment: Hepatic bud size in zebrafish embryos (hhex, foxA3, sid4 expression); format: in vivo
Experimental: To further characterize the role of NO signaling on liver formation, we studied the temporal requirements for NO signaling. Embryos were exposed to Deta (10 μM), L-Arg (10 μM) or L-NAME (10 μM) from 24-48 or 48-72 hpf at which point liver size was assessed. […] Exposure of embryos to L-Arg (10 μM) caused a subtle yet significant increase in the hepatic bud size at 36 hpf (region of hhex expression) in 26% of embryos, whereas L-NAME diminished hepatic bud size in 33% of embryos.
The expression pattern of an alternate hepatic progenitor marker prox1 corroborated that chemical modulators of NO signaling alter the size of the developing hepatic bud. […] These findings were verified by qPCR for hhex and foxA3.

zebrafish embryos [5] = experiment: Hepatic progenitor proliferation in zebrafish embryos (BrdU incorporation, pH3 staining); format: in vivo; conditions: for BrdU incorporation (BrdU positive cells): developing hepatic bud; for staining for the mitotic marker pH3: treated embryos
lfabp:GFP embryos [6] = experiment: Flow cytometric analysis of GFP+ hepatocytes in lfabp:GFP embryos; conditions: GFP+ cells, compared to control
Description: S-nitrosoglutathione reductase (GSNOR) is the major enzyme responsible for metabolizing S-nitrosothiols and is therefore a key negative regulator of S-nitrosylation pathways. We reasoned that by inhibiting GSNOR function we could stimulate S-nitrosothiol signaling and modulate liver formation.

NO production = NO production in vivo with fluorescent probe Cu(2)(FL2E); set-up: species or system zebrafish; conditions: cell-trappable fluorescent probe Cu(2)(FL2E)
zebrafish embryos [7] = experiment: Effect on organs other than the liver in zebrafish embryos (in situ hybridization); format: in vivo; conditions: 10 μM, 18 hpf until 72 hpf
Experimental: These findings were corroborated by qPCR for lfabp.
In order to examine the effect that NO signaling had on other endodermal organs including the pancreas and gut, embryos were exposed to Deta (10 μM) or L-NAME (10 μM) from 18 hpf until 72 hpf. Endodermal derived tissue, the exocrine pancreas and gut were stained by in situ hybridization for foxa3, trypsin and ifabp, respectively.

lfabp:GFP embryos [8] = experiment: APAP-induced liver injury in zebrafish larvae, sub-lethal dose (liver size, BrdU); format: in vivo; conditions: for liver size: APAP 5 mM 48-60 hpf, treatment in recovery phase 60-96 hpf, L-NAME 10 μM, NAC 10 μM, GSNORi 1 μM; for liver size / hepatoprotection: co-exposure model: APAP 5 mM concurrently with treatment 48-96 hpf, Deta 5 μM; for liver size and survival after APAP exposure: summary, embryos and adults, co-exposure
Experimental: In order to examine the possible hepatoprotective effect of GSNORi in the context of acetaminophen (APAP) induced liver injury. Transgenic lfabp:GFP embryos were exposed to a sub-lethal dose of APAP (5 mM) from 48 to 60 hpf followed by treatment during the recovery phase (60-96 hpf) with L-NAME, GSNORi and/or NAC. […] In order to further investigate the proliferative effect of treatments following APAP induced liver injury, we examined BrdU incorporation during the recovery phase.

Zebrafish = experiment: Liver regeneration after 1/3 partial hepatectomy in zebrafish; format: in vivo; conditions: 10 μM
Description: In order to determine whether the hepatoprotective and pro-regenerative effect of GSNOR inhibition was limited to APAP-induced liver injury, we determined the impact of exposure to GSNORi after ⅓ partial hepatectomy.

WT mice = experiment: APAP-induced liver injury in WT mice treated with GSNORi and/or NAC; format: in vivo; conditions: APAP 300 mg/kg, treatment 2 hrs later, GSNORi 5 mg/kg, NAC 300 mg/kg
Experimental: To investigate this possibility, WT mice were injected with a sub-lethal dose of APAP (300 mg/kg) followed 2 hrs later by treatment with GSNORi (5 mg/kg) and/or NAC (300 mg/kg). Mice were sacrificed at 6 or 24 hr.

[9] = APAP 10 mM 48-96 hpf, co-exposure
[10] = APAP 10 mM for 18 hr followed by delayed treatment, GSNORi 1 μM, NAC 10 μM

Compound: N=C(N)NCCC[C@@H](N)C(=O)O [D-Arg, D-Arginine]
- liver size (zebrafish embryos [1]): no effect on liver size

Compound: N[C@@H](CCC(=O)N[C@@H](CSN=O)C(=O)NCC(=O)O)C(=O)O [GSNO, S-nitrosoglutathione]
- embryos with enhanced liver size (zebrafish embryos [1]; GSNO 5 μM): 40%
- embryos with increased liver size (cloche embryos; cloche mutants, GSNO 5 μM): 46%
- liver size in cloche embryos (cloche embryos): able to modulate liver size
- survival compared to APAP alone (zebrafish embryos [2]; APAP 10 mM): increased survival
- overall survival compared to APAP alone (adult zebrafish): enhanced overall survival

Compound: COC(=O)[C@@H](N)CCCNC(=N)N[N+](=O)[O-] [L-NAME, L-N^G-Nitroarginine methyl ester]
- liver size (zebrafish embryos [3]): smaller livers; also recorded: small liver
- liver size (in situ hybridization for lfabp and transferrin) (zebrafish embryos [1]): decrease in liver size
- embryos with diminished liver size (zebrafish embryos [1]; L-NAME 10 μM, 24-72 hpf): 62%
- embryos with diminished hepatic bud size (hhex) (zebrafish embryos [4]; L-NAME, 36 hpf): 33%
- embryos with restricted hepatic bud size (foxA3 expression) (zebrafish embryos [4]; L-NAME, 48 hpf): 60%
- BrdU incorporation (BrdU positive cells) (zebrafish embryos [5]): reduced the number of BrdU positive cells
- staining for the mitotic marker pH3 (zebrafish embryos [5]): inhibited cell cycle progression
- hepatocytes per embryo (lfabp:GFP embryos [6]): decrease
- NO in the developing endoderm (NO production): inhibited
- size of other endodermal organs (foxa3, trypsin, ifabp) (zebrafish embryos [7]): did not observably affect the size of other endodermal organs
- embryos with a small liver (cloche embryos; cloche mutants, L-NAME 10 μM): 40%
- liver size in cloche embryos (cloche embryos): able to modulate liver size
- liver size (lfabp:GFP embryos [8]): exacerbated
- liver size / hepatoprotection (lfabp:GFP embryos [8]): exacerbated injury
- liver size and survival after APAP exposure (lfabp:GFP embryos [8]): further decrease in liver size and more extensive loss in survival
- overall survival compared to APAP alone (adult zebrafish): exacerbated the loss in survival
- regenerative activity (Zebrafish): complete cessation of regenerative activity

Compound: NCCN(CCN)/[N+]([O-])=N/O [Deta, Diethylenetriamine-NONOate]
- liver size (zebrafish embryos [3]): increase in liver size
- liver size (zebrafish embryos [1]): increase liver size
- region of hhex and foxA3 expression in the developing hepatic bud (zebrafish embryos [4]; 10 μM): increasing the region of hhex and foxA3 expression
- size of other endodermal organs (foxa3, trypsin, ifabp) (zebrafish embryos [7]): did not observably affect the size of other endodermal organs
- liver size / hepatoprotection (lfabp:GFP embryos [8]): protected the liver
- survival compared to APAP alone (zebrafish embryos [2]; APAP 10 mM): increased survival
- overall survival compared to APAP alone (adult zebrafish): enhanced overall survival

Compound: NG-amino-L-Arginine [L-NMMA]
- liver size (zebrafish embryos [1]): decrease liver size in a dose-dependent manner

Compound: CC(=O)Nc1ccc(O)cc1 [APAP, N-acetyl-p-aminophenol]
- liver size (lfabp:GFP embryos [8]): dramatic decrease in liver size
- liver size and survival after APAP exposure (lfabp:GFP embryos [8]): decrease in liver size and death
- survival (zebrafish embryos [2]; [9]): 4%
- circulating ALT (adult zebrafish; 24 hpe, APAP 10 mM ± GSNORi 1 μM): 196 U/L
- survival by 72 hpe (adult zebrafish; [10]): 57%
- survival by 72 hpe (adult zebrafish; APAP 10 mM ± GSNORi 1 μM for 24 hr, 2-day recovery in fresh water): 39%
- hepatic glutathione (GSH) (adult zebrafish): dramatic reduction in hepatic glutathione (GSH)
- liver histology (adult zebrafish): hepatocyte necrosis and hemorrhaging
- GFP fluorescence (fluorescence microscopy) (adult zebrafish; adult casper lfabp:GFP fish, APAP 10 mM ± GSNORi 1 μM for 24 hr, examined 72 hpe): reduction in GFP fluorescence

Compound: CC(=O)N[C@@H](CS)C(=O)O [NAC, N-acetylcysteine]
- survival (zebrafish embryos [2]; [9]): 32%
- survival (zebrafish embryos [2]; APAP 10 mM, treatment given after a 12 hr delay): 15%
- survival by 72 hpe (adult zebrafish; [10]): 80%
- hepatic glutathione (GSH) (adult zebrafish): modulated
- liver histology (adult zebrafish): alleviated
- cell proliferation (PCNA immunohistochemistry) (adult zebrafish; following APAP injury): modulated liver regeneration
- circulating ALT, % of the level of APAP alone (WT mice): 43%
- histological evaluation of centrilobular necrosis (WT mice; 6 and 24 hr): effective in preventing liver necrosis

Compound: CC(=O)NC(C(=O)O)C(C)(C)SN=O (racemic) [SNAP, S-Nitroso-N-Acetyl-D,L-Penicillamine]
- liver size (zebrafish embryos [1]): increase liver size

Compound: N=C(N)NCCC[C@H](N)C(=O)O [L-Arg, L-Arginine]
- liver size (zebrafish embryos [3]): increase in liver size
- liver size (in situ hybridization for lfabp and transferrin) (zebrafish embryos [1]): dramatic increase in liver size
- embryos with a large liver (zebrafish embryos [1]; L-Arg 10 μM, 24-72 hpf, liver size scored large, medium or small): approximately 51%
- embryos with increase in hepatic bud size (region of hhex expression) (zebrafish embryos [4]; L-Arg 10 μM, 36 hpf): 26%
- embryos with increased hepatic bud size (foxA3 expression) (zebrafish embryos [4]; L-Arg, 48 hpf): 51%
- BrdU incorporation (BrdU positive cells) (zebrafish embryos [5]): increase in BrdU positive cells
- staining for the mitotic marker pH3 (zebrafish embryos [5]): increased hepatic proliferation
- hepatocytes per embryo (lfabp:GFP embryos [6]): increase in hepatocytes per embryo
- embryos with increased liver size (cloche embryos; cloche mutants, L-Arg 10 μM): 37%
